The record followed here is patent publication US10493070B2 (priority 2016, dated 2019).

Structures are written as SMILES. Like-named read-outs stand apart in the source and are kept apart here. Where only a bound is given, the exact number is not on record here.

The assay relates to recombinant NL4-3 virus (NLRluc, Renilla luciferase in nef, Gag P373S). As to the kind of experiment: HIV cell culture assay (Renilla luciferase reporter virus in MT-2 cells). Particulars: Renilla. Format: cell-based. As to the method:
MT-2 cells and 293T cells were obtained from the NIH AIDS Research and Reference Reagent Program. MT-2 cells were propagated in RPMI 1640 media supplemented with 10% heat inactivated fetal bovine serum, […]. The 293T cells were propagated in DMEM media supplemented with 10% heat inactivated fetal bovine serum (FBS), 100 units/ml penicillin G and 100 μg/ml streptomycin. The proviral DNA clone of NL4-3 was obtained from the NIH AIDS Research and Reference Reagent Program. A recombinant NL4-3 virus, in which a section of the nef gene from NL4-3 was replaced with the Renilla luciferase gene, was used as a reference virus. In addition, residue Gag P373 was converted to P373S. Briefly, the recombinant virus was prepared by transfection of the altered proviral clone of NL4-3. Transfections were performed in 293T cells using LipofectAMINE PLUS from Invitrogen (Carlsbad, Calif.), according to manufacturer's instruction. The virus was titered in MT-2 cells using luciferase enzyme activity as a marker. Luciferase was quantitated using the Dual Luciferase kit from Promega (Madison, Wis.), with modifications to the manufacturer's protocol. The diluted Passive Lysis solution was pre-mixed with the re-suspended Luciferase Assay Reagent and the re-suspended Stop & Glo Substrate (2:1:1 ratio). Fifty (50) μL of the mixture was added to each aspirated well on assay plates and luciferase activity was measured immediately on a Wallac TriLux (Perkin-Elmer). Antiviral activities of inhibitors toward the recombinant virus were quantified by measuring luciferase activity in cells infected for 4-5 days with NLRluc recombinants in the presence serial dilutions of the inhibitor. Table 16 is the key for the data in Table 17.
A general note: A reporter such as luciferase makes a cellular process visible.

[1] abbreviates: NL43, read-out: 10% FBS EC50, 10% FBS, class symbols A/B/C.
The mark [2] stands for this setting: NL43, read-out: 10% FBS EC50, 10% FBS, numeric values.

Take `CN(C)CCC(=O)N1CC=C2C(C)(C)C(c3ccc(C(=O)O)cc3)=CC[C@]2(C)C1` [Example 34]: the EC50 under setting [1] was greater than 3000 nM.

For the compound `CC1(C)C(c2ccc(C(=O)O)cc2)=CC[C@]2(C)CN(C(=O)c3cscc3C(=O)NCCCN3CCS(=O)(=O)CC3)CC=C12` [Example 73], the EC50 under setting [1] is greater than 3000 nM. As to `CC1(C)C(c2ccc(C(=O)O)cc2)=CC[C@]2(C)CN(C(=O)c3ccccc3-c3nc4c(Cl)cc(Cl)cc4[nH]3)CC=C12` [Example A268], the EC50 under setting [2] is 14 nM. `CC1(C)C(c2ccc(C(=O)O)cc2)=CC[C@]2(C)CN(C(=O)c3ccccc3-c3nc4c([N+](=O)[O-])cccc4[nH]3)CC=C12` [Example A272]: the EC50 under setting [1] is less than 500 nM. Still for that read-out and setting: then `CC1(C)C(c2ccc(C(=O)O)cc2)=CC[C@]2(C)CN(C(=O)C3(c4ccccc4F)CCCC3)CC=C12` [Example A1], with greater than 3000 nM.

Turning to `CC(C)[C@H]1CC[C@H](C)C[C@@H]1OC(=O)c1ccccc1C(=O)N1CC=C2C(C)(C)C(c3ccc(C(=O)O)cc3)=CC[C@]2(C)C1` [Example A36], the EC50 under setting [2] is 380 nM. For the compound `COc1cccc(C(=O)N2CC=C3C(C)(C)C(c4ccc(C(=O)O)cc4)=CC[C@]3(C)C2)c1` [Example 18], the EC50 under setting [1] was greater than 3000 nM. Still for that read-out and setting: the result for `CC1(C)C(c2ccc(C(=O)O)cc2)=CC[C@]2(C)CN(C(=O)c3ccccc3C(=O)N3CC=C4C(C)(C)C(c5ccc(C(=O)O)cc5)=CC[C@]4(C)C3)CC=C12` [Example 60] reads 500 to 3000 nM.

Take `Cn1nc(-c2ccccc2)c(C(=O)N2CC=C3C(C)(C)C(c4ccc(C(=O)O)cc4)=CC[C@]3(C)C2)c1Cl` [Example A79]: the EC50 under setting [2] was found to be 870 nM. In the case of `CC1(C)C(c2ccc(C(=O)O)cc2)=CC[C@]2(C)CN(C(=O)c3ccccc3-c3nc4ccccc4n3CC34CCN(CC3)CC4)CC=C12` [Example A275], the EC50 under setting [2] came to 1700 nM. Regarding `CC1(C)C(c2ccc(C(=O)O)cc2)=CC[C@]2(C)CN(C(=O)C3(c4ccccc4)CCN(CCN4CCS(=O)(=O)CC4)CC3)CC=C12` [Example 96, (S)-4-(2-(1-(2-(1,1-dioxidothiomorpholino)ethyl)-4-phenylpiperidine-4-carbonyl)-5,5,8a-trimethyl-1,2,3,5,8,8a-hexahydroisoquinolin-6-yl)benzoic acid], the EC50 under setting [2] worked out at 1350 nM. With `CC(C)(C)OC(=O)NCc1ccc(C(=O)N2CC=C3C(C)(C)C(c4ccc(C(=O)O)cc4)=CC[C@]3(C)C2)cc1` [Example 33], the EC50 under setting [1] was greater than 3000 nM. On to `Cc1ccc2nc(-c3ccccc3C(=O)N3CC=C4C(C)(C)C(c5ccc(C(=O)O)cc5)=CC[C@]4(C)C3)oc2c1` [Example A326], for which, under setting [2], the EC50 is 257 nM.

As for `CC(C)(C)OC(=O)N1CCC(C(=O)N2CCC3C(C)(C)[C@@H](c4ccc(C(=O)O)cc4)CC[C@]3(C)C2)(c2ccccc2)CC1` (stereo partly shown) [Example 84], under setting [2], the EC50 stood at 50 nM. For the compound `CC1(C)C(c2ccc(C(=O)O)cc2)=CC[C@@]2(C)CN(C(=O)c3cccc4c3C(=O)c3ccccc3-4)CC=C12` [Example A30], the EC50 under setting [2] was 1080 nM.

On to `Cc1ccc2nc(-c3ccccc3C(=O)N3CC=C4C(C)(C)C(c5ccc(C(=O)O)cc5)=CC[C@]4(C)C3)[nH]c2c1C` [Example 98], for which, under setting [1], the EC50 is less than 500 nM.

For the compound `Cc1cc2nc(-c3ccccc3C(=O)N3CC=C4C(C)(C)C(c5ccc(C(=O)O)cc5)=CC[C@]4(C)C3)[nH]c2cc1Cl` [Example A254], the EC50 under setting [1] was less than 500 nM.

For the compound `CC(C)C[C@H](NC(=O)OC(C)(C)C)C(=O)N1CCC(C(=O)N2CC=C3C(C)(C)C(c4ccc(C(=O)O)cc4)=CC[C@]3(C)C2)(c2ccccc2)CC1` [Example 93], under setting [1], the EC50 was less than 500 nM. For `CC(C)(C)OC(=O)N1CCC(C(=O)N2CC=C3C(C)(C)C(c4ccc(C(=O)O)cc4)=CC[C@]3(C)C2)(c2ccccc2)CC1` [Example 46], the EC50 under setting [2] amounted to 250 nM.

On to `CC1(C)C(c2ccc(C(=O)O)cc2)=CC[C@]2(C)CN(C(=O)c3ccccc3-c3nc4ccccc4n3-c3ccccc3)CC=C12` [Example A279], for which, under setting [2], the EC50 was found to be 390 nM. The same measure, in the same setting: the result for `CC1(C)C(c2ccc(C(=O)O)cc2)=CC[C@]2(C)CN(C(=O)C3C4CCC(C4)C3C(=O)N3CC=C4C(C)(C)C(c5ccc(C(=O)O)cc5)=CC[C@]4(C)C3)CC=C12` (stereo partly shown) [Example 65] reads 2810 nM; that for `COc1ccc2oc(-c3ccccc3C(=O)N3CC=C4C(C)(C)C(c5ccc(C(=O)O)cc5)=CC[C@]4(C)C3)nc2c1` [Example A320], 183 nM.

Take `CC1(C)C(c2ccc(C(=O)O)cc2)=CC[C@]2(C)CN(c3nc(C(=O)O)cs3)CC=C12` [Example B16]: the EC50 under setting [2] came out at 1480 nM.

`CC(C)C[C@H](NC(=O)OC(C)(C)C)C(=O)N1CCC(C(=O)N2CC[C@H]3C(C)(C)[C@@H](c4ccc(C(=O)O)cc4)CC[C@]3(C)C2)(c2ccccc2)CC1` [Example 87]: the EC50 under setting [2] came out at 101 nM. Same read-out and setting: the result for `CC1(C)C(c2ccc(C(=O)O)cc2)=CC[C@]2(C)CN(c3ncnc(NCCCN4CCS(=O)(=O)CC4)n3)CC=C12` [Example 74, (S)-4-(2-(4-((3-(1,1-dioxidothiomorpholino)propyl)amino)-1,3,5-triazin-2-yl)-5,5,8a-trimethyl-1,2,3,5,8,8a-hexahydroisoquinolin-6-yl)benzoic acid] reads 340 nM. As for `CC1(C)C(c2ccc(C(=O)O)cc2)=CC[C@]2(C)CN(C(=O)c3cncc(C(=O)NCCCN4CCS(=O)(=O)CC4)c3)CC=C12` [Example 71], under setting [1], the EC50 was greater than 3000 nM. The same measure, in the same setting: the result for `CC1(C)C(c2ccc(C(=O)O)cc2)=CC[C@]2(C)CN(C(=O)C(=O)N3CCC[C@H]3C(=O)NCCN3CCS(=O)(=O)CC3)CC[C@@H]12` [Example C1, 4-((4aS,8aS)-2-(2-((S)-2-((2-(1,1-dioxidothiomorpholino)ethyl)carbamoyl)pyrrolidin-1-yl)-2-oxoacetyl)-5,5,8a-trimethyl-1,2,3,4,4a,5,8,8a-octahydroisoquinolin-6-yl)benzoic acid] reads greater than 3000 nM; that for `CC1(C)C(c2ccc(C(=O)O)cc2)=CC[C@]2(C)CN(C(=O)c3ccccc3-c3nc4cc(C(=O)O)ccc4n3Cc3ccccc3)CC=C12` [Example A290], greater than 3000 nM; that for `CCn1c(-c2ccccc2C(=O)N2CC=C3C(C)(C)C(c4ccc(C(=O)O)cc4)=CC[C@]3(C)C2)nc2cc(S(C)(=O)=O)ccc21` [Example A286], greater than 3000 nM.

For the compound `CC1(C)C(c2ccc(C(=O)O)cc2)=CC[C@]2(C)CN(C(=O)c3cccc(C(N)=O)c3)CC=C12` [Example 21], the EC50 under setting [1] was greater than 3000 nM. On the same count and under the same terms, then `CC1(C)C(c2ccc(C(=O)O)cc2)=CC[C@]2(C)CN(C(=O)c3ccccc3-c3nc4ccc(F)c(F)c4o3)CC=C12` [Example A314], with 500 to 3000 nM. `CC(C)C[C@H](NC(=O)OC(C)(C)C)C(=O)N1CCC(C(=O)N2CC=C3C(C)(C)[C@@H](c4ccc(C(=O)O)cc4)CC[C@]3(C)C2)(c2ccccc2)CC1` [Example 89]: the EC50 under setting [2] is 67 nM. `CC1(C)C(c2ccc(C(=O)O)cc2)=CC[C@]2(C)CN(C(=O)c3ccccc3-c3nc4cc(Cl)c(Cl)cc4[nH]3)CC=C12` [Example A265]: the EC50 under setting [1] is less than 500 nM. For `CC1(C)C(c2ccc(C(=O)O)cc2)=CC[C@]2(C)CN(C(=O)c3ccccc3-c3nc4cc(Cl)ccc4o3)CC=C12` [Example A332], the EC50 under setting [1] is less than 500 nM. As to `CC1(C)C(c2ccc(C(=O)O)cc2)=CC[C@]2(C)CN(C(=O)c3cccc(C(=O)N4CC=C5C(C)(C)C(c6ccc(C(=O)O)cc6)=CC[C@]5(C)C4)c3)CC=C12` [Example 58, 4,4′-((8aS,8a′S)-isophthaloylbis(5,5,8a-trimethyl-1,2,3,5,8,8a-hexahydroisoquinoline-2,6-diyl))dibenzoic acid], under setting [1], the EC50 was less than 500 nM.

Take `CC1(C)C(c2ccc(C(=O)O)cc2)=CC[C@]2(C)CN(c3cc(N)cc(-c4nnn(CCN5CCS(=O)(=O)CC5)n4)c3)CC=C12` [Example B3, (S)-4-(2-(3-amino-5-(2-(2-(1,1-dioxidothiomorpholino)ethyl)-2H-tetrazol-5-yl)phenyl)-5,5,8a-trimethyl-1,2,3,5,8,8a-hexahydroisoquinolin-6-yl)benzoic acid]: the EC50 under setting [1] is greater than 3000 nM. Same read-out and setting: the result for `CC(C)C[C@@H](NC(=O)OC(C)(C)C)C(=O)N1CCC(C(=O)N2CC=C3C(C)(C)[C@@H](c4ccc(C(=O)O)cc4)CC[C@]3(C)C2)(c2ccccc2)CC1` [Example 88] reads less than 500 nM. Take `CCOc1cccc2cc(C(=O)N3CC=C4C(C)(C)C(c5ccc(C(=O)O)cc5)=CC[C@]4(C)C3)oc12` [Example A46]: the EC50 under setting [2] came out at 1320 nM.

As for `C[C@@H](OC(C)(C)C)[C@H](NC(=O)OC(C)(C)C)C(=O)N1CCC(C(=O)N2CC=C3C(C)(C)C(c4ccc(C(=O)O)cc4)=CC[C@]3(C)C2)(c2ccccc2)CC1` [Example A185], under setting [2], the EC50 turned out to be 123 nM. Consider `CC1(C)C(c2ccc(C(=O)O)cc2)=CC[C@]2(C)CN(C(=O)c3cccc(CN4CCS(=O)(=O)CC4)c3)CC=C12` [Example 38], for which the EC50 under setting [1] is greater than 3000 nM.
